Experimental data from paper PMC4893628, “Chalcone-based Selective Inhibitors of a C4 Plant Key Enzyme as Novel Potential Herbicides” (Scientific Reports, 2016).
Like-named read-outs stand apart in the source and are kept apart here.

How the values were obtained:
F. trinervia PEPC = biological target: T1, F. trinervia PEPC (Flaveria trinervia, UniProt P30694); assay: biochemical; format: biochemical
T1 construct: the full-length ppcA gene of PEPC from F. trinervia (EMBL-Bank X61304); made in house; host or cells: Escherichia coli BL21(DE3)
T1 sequence (P30694 1-966): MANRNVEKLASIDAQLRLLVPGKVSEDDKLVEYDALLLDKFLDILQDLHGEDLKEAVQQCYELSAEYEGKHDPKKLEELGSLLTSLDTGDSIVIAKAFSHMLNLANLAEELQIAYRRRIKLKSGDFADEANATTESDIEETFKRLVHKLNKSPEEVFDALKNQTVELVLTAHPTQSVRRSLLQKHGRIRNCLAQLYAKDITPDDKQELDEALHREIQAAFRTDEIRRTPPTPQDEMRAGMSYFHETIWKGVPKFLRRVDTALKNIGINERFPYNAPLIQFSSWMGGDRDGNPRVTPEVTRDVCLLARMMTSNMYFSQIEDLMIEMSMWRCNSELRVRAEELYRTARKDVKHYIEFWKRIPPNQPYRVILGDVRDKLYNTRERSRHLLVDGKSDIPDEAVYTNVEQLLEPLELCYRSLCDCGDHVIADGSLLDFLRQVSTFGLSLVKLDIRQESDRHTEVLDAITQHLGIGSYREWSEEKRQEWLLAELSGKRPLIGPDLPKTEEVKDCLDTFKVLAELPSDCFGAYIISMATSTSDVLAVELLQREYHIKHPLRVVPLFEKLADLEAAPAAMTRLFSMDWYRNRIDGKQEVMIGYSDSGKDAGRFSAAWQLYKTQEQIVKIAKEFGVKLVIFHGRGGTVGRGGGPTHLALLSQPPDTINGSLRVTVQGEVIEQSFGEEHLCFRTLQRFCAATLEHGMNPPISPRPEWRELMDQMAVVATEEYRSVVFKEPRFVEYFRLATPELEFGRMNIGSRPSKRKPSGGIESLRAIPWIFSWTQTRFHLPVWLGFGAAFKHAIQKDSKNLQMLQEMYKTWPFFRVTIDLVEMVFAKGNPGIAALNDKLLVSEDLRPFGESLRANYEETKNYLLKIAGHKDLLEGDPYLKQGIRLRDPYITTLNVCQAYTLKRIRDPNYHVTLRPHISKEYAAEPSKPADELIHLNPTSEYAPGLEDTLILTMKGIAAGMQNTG
Experimental: The IC50 values of small molecule compounds on F. pringlei and F. trinervia PEPCs were determined using PEPC coupled spectrophotometric assay. The amount of NADH oxidized by NADH-malate dehydrogenase was measured by the decrease in absorbance at 340 nm in a Beckman DU-800 spectrophotometer, thus the value is in proportion to the corresponding substrate conversion of the enzyme. […] The reactions were started by adding two folds of the Km value of PEP for each enzyme. The data were analyzed using GraFit (Erithacus Software, UK).

[1] = test system: Corynebacterium glutamicum ATCC13032; assay: Bacterial growth in microscale cultivation, C. glutamicum; format: cell-based; conditions: relative to control; for activity at 4 µM / activity at 40 µM / activity at 120 µM / activity at 400 µM: Corynebacterium glutamicum
Experimental: (§1) The following bacteria were cultivated in the presence of trans-chalcone derived inhibitors: Corynebacterium glutamicum ATCC13032[43], Escherichia coli K-12 MG1655[44], Pseudomonas putida KT2440[45], and Bacillus subtilis 168[46]. The growth of these bacteria was monitored in flower-well plates shaken at 1200 rpm as backscatter at 620 nm (gain 20) using a BioLector® microscale cultivation system (m2p labs, Baesweiler, Germany). For further experimental details please refer to the Supplementary Information.
(§2) medium or the appropriate minimal medium and shaken at 140 rpm overnight. For inoculation of
(§3) the main culture, cells equivalent to an optical density at 600 nm of 0.5 (C. glutamicum, E. coli,
(§4) and P. putida) or 0.25 (B. subtilis) in 800 µL medium were washed and resuspended in fresh
(§5) media. Inhibitor substances were dissolved in DMSO and added to the media to a final
(§6) Since the least polar trans-chalcone and 2’-hydroxychalcone precipitated in the growth media at
(§7) the highest concentrations, the maximal concentration of these compounds was reduced to 400
(§8) µM and 100 µM, respectively. The final backscatter at 620 nm, the growth rate (h-1), and the
(§9) duration of the lag phase of all cultures were determined in a BioLector microscale cultivation
(§10) system in comparison to negative controls supplemented with the solvent DMSO. A longer lag

[2] = test system: Escherichia coli K-12 MG1655; assay: Bacterial growth in microscale cultivation, E. coli; format: cell-based; conditions: relative to control; for activity at 4 µM / activity at 40 µM / activity at 400 µM: Escherichia coli
Experimental: as §1, §2, §3, §4, §5, §6, §7, §8, §9, §10

Bacillus subtilis 168 = assay: Bacterial growth in microscale cultivation, B. subtilis; format: cell-based; conditions: relative to control
Experimental: as §1, §2, §3, §4, §5, §6, §7, §8, §9, §10

With `O=C(/C=C/c1ccc(O)cc1)c1ccccc1O` [Compound 3, 2′,4-Dihydroxychalcone] the “Selectivity C4/C3” value (F. trinervia PEPC; C4 PEPC over C3 isoform) was 1.6 fold, the IC50 (F. trinervia PEPC; C4 PEPC, read-out: IC50 F. trinervia PEPC) was 39.8 ± 4.2 µM and the activity at 4 µM ([1]; ATCC13032, complex medium, 4 µM, read-out: Final Backscatter) was 100%. It also gave an activity at 4 µM ([1]; ATCC13032, complex medium, 4 µM, read-out: Growth rate) of 101%, an activity at 40 µM ([1]; ATCC13032, complex medium, 40 µM, read-out: Final Backscatter) of 103% and an activity at 40 µM ([1]; ATCC13032, complex medium, 40 µM, read-out: Growth rate) of 99.1%. The activity at 120 µM ([1]; ATCC13032, complex medium, 120 µM, read-out: Final Backscatter) was 111%, the activity at 120 µM ([1]; ATCC13032, complex medium, 120 µM, read-out: Growth rate) was 107% and the activity at 400 µM ([1]; ATCC13032, complex medium, 400 µM, read-out: Final Backscatter) was 112%. The activity at 400 µM ([1]; ATCC13032, complex medium, 400 µM, read-out: Growth rate) was 93.9%, the activity at 4 µM ([1]; ATCC13032, minimal medium, 4 µM, read-out: Final Backscatter) was 102% and the activity at 4 µM ([1]; ATCC13032, minimal medium, 4 µM, read-out: Growth rate) was 99.6%. For the same compound, the activity at 40 µM ([1]; ATCC13032, minimal medium, 40 µM, read-out: Final Backscatter) was 103%, the activity at 40 µM ([1]; ATCC13032, minimal medium, 40 µM, read-out: Growth rate) was 99.5% and the activity at 120 µM ([1]; ATCC13032, minimal medium, 120 µM, read-out: Final Backscatter) was 102%. It also gave an activity at 120 µM ([1]; ATCC13032, minimal medium, 120 µM, read-out: Growth rate) of 96.7%, an activity at 400 µM ([1]; ATCC13032, minimal medium, 400 µM, read-out: Final Backscatter) of 106% and an activity at 400 µM ([1]; ATCC13032, minimal medium, 400 µM, read-out: Growth rate) of 81.2%. The “Lag Phase” value ([1]; complex medium, 4 µM) was 93,2%, the “Lag Phase” value ([1]; complex medium, 40 µM) was 93,8% and the “Lag Phase” value ([1]; complex medium, 120 µM) was 100,5%. For the same compound, the “Lag Phase” value ([1]; complex medium, 400 µM) was 118,1%, the “Lag Phase” value ([1]; minimal medium, 4 µM) was 100,0% and the “Lag Phase” value ([1]; minimal medium, 40 µM) was 97,3%. The “Lag Phase” value ([1]; minimal medium, 120 µM) was 107,7%, the “Lag Phase” value ([1]; minimal medium, 400 µM) was 139,3% and the activity at 4 µM ([2]; MG1655, complex medium, 4 µM, read-out: Final Backscatter) was 101%. The activity at 4 µM ([2]; MG1655, complex medium, 4 µM, read-out: Growth rate) was 88.3%, the activity at 40 µM ([2]; MG1655, complex medium, 40 µM, read-out: Final Backscatter) was 102% and the activity at 40 µM ([2]; MG1655, complex medium, 40 µM, read-out: Growth rate) was 95%. The activity at 400 µM ([2]; MG1655, complex medium, 400 µM, read-out: Growth rate) was 99.2%, the activity at 4 µM ([2]; MG1655, minimal medium, 4 µM, read-out: Final Backscatter) was 100% and the activity at 4 µM ([2]; MG1655, minimal medium, 4 µM, read-out: Growth rate) was 106%. For the same compound, the activity at 40 µM ([2]; MG1655, minimal medium, 40 µM, read-out: Final Backscatter) was 99.1%, the activity at 40 µM ([2]; MG1655, minimal medium, 40 µM, read-out: Growth rate) was 95.3% and the activity at 400 µM ([2]; MG1655, minimal medium, 400 µM, read-out: Final Backscatter) was 101%. The activity at 400 µM ([2]; MG1655, minimal medium, 400 µM, read-out: Growth rate) was 108%, the “Lag Phase” value ([2]; complex medium, 4 µM) was 101,4% and the “Lag Phase” value ([2]; complex medium, 40 µM) was 102,1%. The “Lag Phase” value ([2]; complex medium, 400 µM) was 97,8%, the “Lag Phase” value ([2]; minimal medium, 4 µM) was 99,3% and the “Lag Phase” value ([2]; minimal medium, 40 µM) was 100,0%. For the same compound, the “Lag Phase” value ([2]; minimal medium, 400 µM) was 98,6%, the activity at 4 µM (Bacillus subtilis 168; Bacillus subtilis, 168, complex medium, 4 µM, read-out: Final Backscatter) was 95.2% and the activity at 4 µM (Bacillus subtilis 168; Bacillus subtilis, 168, complex medium, 4 µM, read-out: Growth rate) was 99.5%. It also gave an activity at 40 µM (Bacillus subtilis 168; Bacillus subtilis, 168, complex medium, 40 µM, read-out: Final Backscatter) of 97.1%, an activity at 40 µM (Bacillus subtilis 168; Bacillus subtilis, 168, complex medium, 40 µM, read-out: Growth rate) of 108% and an activity at 120 µM (Bacillus subtilis 168; Bacillus subtilis, 168, complex medium, 120 µM, read-out: Final Backscatter) of 102%. For the same compound, the activity at 120 µM (Bacillus subtilis 168; Bacillus subtilis, 168, complex medium, 120 µM, read-out: Growth rate) was 114%, the activity at 400 µM (Bacillus subtilis 168; Bacillus subtilis, 168, complex medium, 400 µM, read-out: Final Backscatter) was 91.6% and the activity at 400 µM (Bacillus subtilis 168; Bacillus subtilis, 168, complex medium, 400 µM, read-out: Growth rate) was 92.8%. It also gave an activity at 4 µM (Bacillus subtilis 168; Bacillus subtilis, 168, minimal medium, 4 µM, read-out: Final Backscatter) of 101%, an activity at 4 µM (Bacillus subtilis 168; Bacillus subtilis, 168, minimal medium, 4 µM, read-out: Growth rate) of 130% and an activity at 40 µM (Bacillus subtilis 168; Bacillus subtilis, 168, minimal medium, 40 µM, read-out: Final Backscatter) of 99.1%. It also gave an activity at 40 µM (Bacillus subtilis 168; Bacillus subtilis, 168, minimal medium, 40 µM, read-out: Growth rate) of 119%, an activity at 120 µM (Bacillus subtilis 168; Bacillus subtilis, 168, minimal medium, 120 µM, read-out: Final Backscatter) of 100% and an activity at 120 µM (Bacillus subtilis 168; Bacillus subtilis, 168, minimal medium, 120 µM, read-out: Growth rate) of 115%. For the same compound, the activity at 400 µM (Bacillus subtilis 168; Bacillus subtilis, 168, minimal medium, 400 µM, read-out: Final Backscatter) was 102%, the activity at 400 µM (Bacillus subtilis 168; Bacillus subtilis, 168, minimal medium, 400 µM, read-out: Growth rate) was 113% and the “Lag Phase” value (Bacillus subtilis 168; complex medium, 4 µM) was 105,7%. The “Lag Phase” value (Bacillus subtilis 168; complex medium, 40 µM) was 105,7%, the “Lag Phase” value (Bacillus subtilis 168; complex medium, 120 µM) was 125,5% and the “Lag Phase” value (Bacillus subtilis 168; complex medium, 400 µM) was 151,3%. The “Lag Phase” value (Bacillus subtilis 168; minimal medium, 4 µM) was 99,0%, the “Lag Phase” value (Bacillus subtilis 168; minimal medium, 40 µM) was 101,0% and the “Lag Phase” value (Bacillus subtilis 168; minimal medium, 120 µM) was 111,3%. The “Lag Phase” value (Bacillus subtilis 168; minimal medium, 400 µM) was 151,4%.
